{"source": "patent US11980594B2", "about": "“Composition and method for treating a drug-resistant cancer” (NOVELWISE PHARMACEUTICAL CORPORATION, priority 2021, dated 2024)", "key": {"[1]": {"system": "GBM-R cells (U87MG-R and A172-R)", "assay": "GBM-R cell viability time course (FIG. 2F)", "type": "cell-based, human", "conditions": "BMX 10 μM alone, FIG. 2F (24, 48, and 72 hrs)", "procedure": "(A) Chemical structure of BMX. (B) Cell viability of GBM and GBM-R cell lines after treatment with 0.5, 10, 15, 30, or 50 μM BMX. (C) Cell viability of GBM and GBM-R cell lines after treatment with 0.25, 50, 100, 200, 400, or 800 μM TMZ. (D) GBM and GBM-R cell viability after treatment with 10 μM BMX with or without TMZ at various concentrations (0.25, 50, 100, 200, 400, or 800 μM) for 24 hrs. (E) GBM and GBM-R cell viability after treatment with 50 μM TMZ with or without BMX at various concentrations (0.5, 10, 15, 30, or 50 μM) for 24 hrs. (F) GBM-R cell viability after treatment with 50 μM TMZ with or without 10 μM BMX for 24, 48, and 72 hrs. (G) Colony formation assay of GBM and GBM-R cell lines with BMX (0, 5, or 10 μM) with or without TMZ (50 μM) for 14 days. Data are represented as means±SEM from three experiments. *p<0.05 vs. control (A172 and U87MG); #p<0.05 vs. (A172-R and U87MG-R).\nWe plated 3000 GBM cells per well in 96-well plates and allowed them to adhere overnight. To validate cell line responsiveness to BMX and TMZ monotherapy, the cells were treated with different doses of BMX or TMZ for 24, 48, and 72 hrs. […] Following treatment, the absorption value was measured using a CCK8 kit (Targetmol, Shanghai, China) at the indicated time points. […]"}, "RKO cells": {"system": "RKO cells", "assay": "Annexin V/PI flow cytometric analysis of apoptosis, RKO", "type": "cell-based, human", "conditions": "BMX, 48 hrs", "procedure": "Apoptosis induction in different doses of BMX (0-10 μM) in the presence or absence of TMZ (50 μM) was assayed by the detection of membrane externalization of phosphatidylserine with the with the CF®488A Annexin V and PI Apoptosis Kit (Fremont, Calif., USA) following the manufacturer's instructions. All samples were then immediately analyzed by flow cytometry."}, "HDAC8 [2]": {"system": "HDAC8", "assay": "HDAC8 mRNA (qRT-PCR) and protein (Western blot) expression in GBM and GBM-R cell lines", "type": "cell-based, human", "conditions": "four cell lines (U87MG, U87MG-R, A172, A172-R); BMX 0-10 μM; FIGS. 9A and 9B", "procedure": "The ABI Prism® 7700 Sequence Detection System (Applied Biosystems, Foster City, Calif., USA) was used for quantitative analysis of mRNA expression. The cells (2×10^5) were seeded in 6-well plates, and total RNA was extracted using Tissue Total RNA Mini Kit (Geneaid, Taipei, Taiwan). A 10-ng sample of total RNA was transcribed into cDNA by using a High-Capacity cDNA Reverse Transcription Kit (Applied Biosystems). Gene expression was quantified using Fast SYBR Green Master Mix (Applied Biosystems) following the procedures provided by the manufacturer, with 18s as the inner reference. All procedures were performed according to the manufacturer's protocols. The thermocycling conditions were as follows: 50° C. for 2 min, 95° C. for 10 min, and 40 cycles of 95° C. for 15 s and 60° C. for […]. Each sample was analyzed in triplicate. The threshold cycle (Ct) values were calculated using the StepOnePlus (Applied Biosystems) software. The relative expression of each mRNA was calculated using the 2-(ΔCt) method. […]\nThe cells were collected and lysed in RIPA lysis buffer (EMD Millipore Billerica, Mass., USA, 10×RIPA buffer) containing a protease inhibitor. Protein concentration was determined using a protein assay kit (Bio-Rad Laboratories, Hercules, Calif., USA). […] After washing thoroughly with TBS-T, the HRP signals were detected with a chemical HRP substrate. […]"}, "HDAC8 [3]": {"target": "T1, HDAC8 (Homo sapiens, UniProt Q9BY41)", "T1 sequence (Q9BY41 1-377)": "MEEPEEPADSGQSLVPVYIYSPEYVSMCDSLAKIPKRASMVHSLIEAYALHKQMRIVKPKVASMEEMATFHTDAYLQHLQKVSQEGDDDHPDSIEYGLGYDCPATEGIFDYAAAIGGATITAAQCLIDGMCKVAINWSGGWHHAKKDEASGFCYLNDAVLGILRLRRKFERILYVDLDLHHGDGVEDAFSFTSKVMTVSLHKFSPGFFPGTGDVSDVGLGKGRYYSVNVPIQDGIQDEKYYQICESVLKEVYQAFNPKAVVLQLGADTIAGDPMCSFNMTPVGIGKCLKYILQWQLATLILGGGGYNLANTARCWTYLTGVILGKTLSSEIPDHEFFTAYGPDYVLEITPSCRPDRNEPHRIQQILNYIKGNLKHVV", "conditions": "statement from literature [22]; cited from earlier work"}}, "note": "Values joined by “and” are separate entries in the source; they are usually repeats but may differ in a detail not shown here. Identical values can stand only once.", "data": [{"molecule": "COc1ccc(COc2c(/C=C/C(=O)NO)ccc(OC)c2CC=C(C)C)cc1", "note": "[BMX, (E)-2-(4-Methoxybenzyloxy)-3-prenyl-4-methoxy-N-hydroxycinamide]", "values": [{"measurement": "cell viability (cytotoxic effect, fold)", "setting": "[1]", "result": "0.88 × and 0.77 × and 0.63 ×"}, {"measurement": "early apoptotic cells", "setting": "RKO cells", "result": "≤ 59.18", "unit": "%"}, {"measurement": "HDAC8 mRNA and protein expression", "setting": "HDAC8 [2]", "result": "inhibition of HDAC8 mRNA and protein expression"}, {"measurement": "HDAC isoform selectivity", "setting": "HDAC8 [3]", "result": "isoform-selective HDAC8 inhibitor"}]}]}
